According to patent US20170334899A1, “AMINO-SUBSTITUTED ISOTHIAZOLES” (Bayer Pharma Aktiengesellschaft, priority 2014, published 2017):

Tested on: human cervical tumor cell line HeLa (ATCC CCL-2)
Test: SAC-Formation - Paclitaxel-Induced Assay
Type: cell-based
Settings: Homo sapiens, HeLa, 24 h, HeLa cells, paclitaxel 0.05 μM, test range 0.005 μM-20 μM, read-out: IC50 [mol/l] SAC-Formation - Paclitaxel-Induced Assay
Outline: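 HeLa cells incubated overnight at 37° C, then given paclitaxel (0.05 μM final) plus test compound (0.005–20 μM, 0.5% DMSO) together for 24 h at 37° C. Fixed cells stained for phospho-histone H3 Ser10 (mitotic cells) and Hoechst 33342 (cell count); imaging-derived mitotic index fitted by four-parameter Hill equation.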

| IC50 | SMILES |
| --- | --- |
| 20000 nM | Cc1nsc(Nc2ccc(C#N)cn2)c1C(=O)Nc1ccc(OC2CCN(CCF)CC2)nc1 [Example 29, 5-[(5-Cyanopyridin-2-yl)amino]-N-(6-{[1-(2-fluoroethyl)piperidin-4-yl]oxy}pyridin-3-yl)-3-methyl-1,2-thiazole-4-carboxamide] |
| 420 nM | Cc1nsc(Nc2ccc(C#N)cn2)c1C(=O)Nc1ccc(OC2CCN(CC(F)(F)F)CC2)nc1 [Example 30, 5-[(5-Cyanopyridin-2-yl)amino]-3-methyl-N-(6-{[1-(2,2,2-trifluoroethyl)piperidin-4-yl]oxy}pyridin-3-yl)-1,2-thiazole-4-carboxamide] |
| 11000 nM | Cc1nsc(Nc2cnc3ccccc3n2)c1C(=O)Nc1ccc(OC2CCCNC2)nc1 (stereo not shown) [Example 32, 3-Methyl-N-[6-(piperidin-3-yloxy)pyridin-3-yl]-5-(quinoxalin-2-ylamino)-1,2-thiazole-4-carboxannide] |
| 990 nM | Cc1nsc(Nc2cc(C#N)ccn2)c1C(=O)Nc1ccc(OC2CCCN(C(=O)OC(C)(C)C)C2)nc1 (stereo not shown) [Example 34, tert-Butyl 3({5-[({5-[(4-cyanopyridin-2-yl)amino]-3-methyl-1,2-thiazol-4-yl}-carbonyl)amino]pyridin-2-yl}oxy)piperidine-1-carboxylate] |
| 800 nM | Cc1nsc(Nc2cnc(C(F)(F)F)cn2)c1C(=O)Nc1ccc(OCCNCCC(F)(F)F)nc1 [Example 323, 3-methyl-5-{[5-(trifluoromethyl)pyrazin-2-yl]amino}-N-(6-{2-[(3,3,3-trifluoropropyl)amino]ethoxy}pyridin-3-yl)-1,2-thiazole-4-carboxamide] |
| 870 nM | Cc1nsc(Nc2cnc(C(F)(F)F)cn2)c1C(=O)Nc1ccc(OC2CCN(C(CF)CF)CC2)nc1 [Example 324, N-(6-{[1-(1,3-difluoropropan-2-yl)piperidin-4-yl]oxy}pyridin-3-yl)-3-methyl-5-{[5-(trifluoromethyl)pyrazin-2-yl]amino}-1,2-thiazole-4-carboxamide] |
| 37 nM | Cc1nsc(Nc2cnc(C(F)(F)F)cn2)c1C(=O)Nc1ccc(OCC2CCCN(CCC(F)(F)F)C2)nc1 (stereo not shown) [Example 328, 3-methyl-5-{[5-(trifluoromethyl)pyrazin-2-yl]amino}-N-(6-{[1-(3,3,3-trifluoropropyl)piperidin-3-yl]methoxy}pyridin-3-yl)-1,2-thiazole-4-carboxamide] |
| 25 nM | Cc1nsc(Nc2cnc(C(F)(F)F)cn2)c1C(=O)Nc1ccc(OC2CCCN(CC(F)F)C2)nc1 (stereo not shown) [Example 330, N-(6-{[1-(2,2-difluoroethyl)piperidin-3-yl]oxy}pyridin-3-yl)-3-methyl-5-{[5-(trifluoromethyl)pyrazin-2-yl]amino}-1,2-thiazole-4-carboxamide] |
| 23 nM | Cc1nsc(Nc2cnc(C(F)(F)F)cn2)c1C(=O)Nc1ccc(OC2CCCN(CC(F)(F)F)C2)nc1 (stereo not shown) [Example 331, 3-methyl-N-(6-{[1-(2,2,2-trifluoroethyl)piperidin-3-yl]oxy}pyridin-3-yl)-5-{[5-(trifluoromethyl)pyrazin-2-yl]amino}-1,2-thiazole-4-carboxamide] |
| 35 nM | Cc1nsc(Nc2cnc(C(F)(F)F)cn2)c1C(=O)Nc1ccc(F)c(OC[C@@H]2CCN(CCC(F)(F)F)C2)c1 [Example 340, N-(4-fluoro-3-{[(3R)-1-(3,3,3-trifluoropropyl)pyrrolidin-3-yl]methoxy}phenyl)-3-methyl-5-{[5-(trifluoromethyl)pyrazin-2-yl]amino}-1,2-thiazole-4-carboxamide] |
| 280 nM | Cc1nsc(Nc2cnc(C(F)(F)F)cn2)c1C(=O)Nc1ccc(OCC2CCN(CCF)CC2)nc1 [Example 344, N-(6-{[1-(2-fluoroethyl)piperidin-4-yl]methoxy}pyridin-3-yl)-3-methyl-5-{[5-(trifluoromethyl)pyrazin-2-yl]amino}-1,2-thiazole-4-carboxamide] |

The remaining lines, values behind:

| SMILES | IC50 |
| --- | --- |
| Cc1nsc(Nc2ccc(C#N)cn2)c1C(=O)Nc1ccc(OC2CCNCC2)nc1 [Example 28, 5-[(5-Cyanopyridin-2-yl)amino]-3-methyl-N-[6-(piperidin-4-yloxy)pyridin-3-yl]-1,2-thiazole-4-carboxannide] | 20000 nM |
| Cc1nsc(Nc2cnc3ccccc3n2)c1C(=O)Nc1ccc(OC2CCCN(C(=O)OC(C)(C)C)C2)nc1 (stereo not shown) [Example 31, tert-Butyl 3-{[5-({[3-methyl-5-(quinoxalin-2-ylamino)-1,2-thiazol-4-yl]carbonyl}-amino)pyridin-2-yl]oxy}piperidine-1-carboxylate] | 610 nM |
| Cc1nsc(Nc2cnc3ccccc3n2)c1C(=O)Nc1ccc(OC2CCCN(CC(F)F)C2)nc1 (stereo not shown) [Example 33, N-(6-{[1-(2,2-Difluoroethyl)piperidin-3-yl]oxy}pyridin-3-yl)-3-methyl-5-(quinoxalin-2-ylamino)-1,2-thiazole-4-carboxamide] | 74 nM |
| Cc1nsc(Nc2cnc(C(F)(F)F)cn2)c1C(=O)Nc1ccc(OCC2CCCN(CCF)C2)nc1 (stereo not shown) [Example 325, N-(6-{[1-(2-fluoroethyl)piperidin-3-yl]methoxy}pyridin-3-yl)-3-methyl-5-{[5-(trifluoromethyl)pyrazin-2-yl]amino}-1,2-thiazole-4-carboxamide] | 53 nM |
| Cc1nsc(Nc2cnc(C(F)(F)F)cn2)c1C(=O)Nc1ccc(OCC2CCCN(CC(F)(F)F)C2)nc1 (stereo not shown) [Example 326, 3-methyl-N-(6-{[1-(2,2,2-trifluoroethyl)piperidin-3-yl]methoxy}pyridin-3-yl)-5-{[5-(trifluoromethyl)pyrazin-2-yl]amino}-1,2-thiazole-4-carboxamide] | 2300 nM |
| Cc1nsc(Nc2cnc(C(F)(F)F)cn2)c1C(=O)Nc1ccc(OCC2CCCN(CC(F)F)C2)nc1 (stereo not shown) [Example 327, N-(6-{[1-(2,2-difluoroethyl)piperidin-3-yl]methoxy}pyridin-3-yl)-3-methyl-5-{[5-(trifluoromethyl)pyrazin-2-yl]amino}-1,2-thiazole-4-carboxamide] | 57 nM |
| Cc1nsc(Nc2cnc(C(F)(F)F)cn2)c1C(=O)Nc1ccc(OC2CCCN(CCF)C2)nc1 (stereo not shown) [Example 329, N-(6-{[1-(2-fluoroethyl)piperidin-3-yl]oxy}pyridin-3-yl)-3-methyl-5-{[5-(trifluoromethyl)pyrazin-2-yl]amino}-1,2-thiazole-4-carboxamide] | 180 nM |
| Cc1nsc(Nc2cnc(C(F)(F)F)cn2)c1C(=O)Nc1ccc(OC2CCCN(CCC(F)(F)F)C2)nc1 (stereo not shown) [Example 332, 3-methyl-5-{[5-(trifluoromethyl)pyrazin-2-yl]amino}-N-(6-{[1-(3,3,3-trifluoropropyl)piperidin-3-yl]oxy}pyridin-3-yl)-1,2-thiazole-4-carboxamide] | 25 nM |
| Cc1nsc(Nc2cnc(C(F)(F)F)cn2)c1C(=O)Nc1ccc(OC2CCCN(C(CF)CF)C2)nc1 (stereo not shown) [Example 333, N-(6-{[1-(1,3-difluoropropan-2-yl)piperidin-3-yl]oxy}pyridin-3-yl)-3-methyl-5-{[5-(trifluoromethyl)pyrazin-2-yl]amino}-1,2-thiazole-4-carboxamide] | 200 nM |
| Cc1nsc(Nc2cnc(C(F)(F)F)cn2)c1C(=O)Nc1ccc(F)c(OCC2CCCN(CC(F)F)C2)c1 (stereo not shown) [Example 334, N-(3-{[1-(2,2-difluoroethyl)piperidin-3-yl]methoxy}-4-fluorophenyl)-3-methyl-5-{[5-(trifluoromethyl)pyrazin-2-yl]amino}-1,2-thiazole-4-carboxamide] | 56 nM |
| Cc1nsc(Nc2cnc(C(F)(F)F)cn2)c1C(=O)Nc1ccc(F)c(OCC2CCCN(CCF)C2)c1 (stereo not shown) [Example 336, N-(4-fluoro-3-{[1-(2-fluoroethyl)piperidin-3-yl]methoxy}phenyl)-3-methyl-5-{[5-(trifluoromethyl)pyrazin-2-yl]amino}-1,2-thiazole-4-carboxamide] | 61 nM |
| Cc1nsc(Nc2cnc(C(F)(F)F)cn2)c1C(=O)Nc1ccc(F)c(OCC2CCCN(CC(F)(F)F)C2)c1 (stereo not shown) [Example 337, N-(4-fluoro-3-{[1-(2,2,2-trifluoroethyl)piperidin-3-yl]methoxy}phenyl)-3-methyl-5-{[5-(trifluoromethyl)pyrazin-2-yl]amino}-1,2-thiazole-4-carboxamide] | 51 nM |
| Cc1nsc(Nc2cnc(C(F)(F)F)cn2)c1C(=O)Nc1ccc(F)c(OCC2CCCN(CCC(F)(F)F)C2)c1 (stereo not shown) [Example 338, N-(4-fluoro-3-{[1-(3,3,3-trifluoropropyl)piperidin-3-yl]methoxy}phenyl)-3-methyl-5-{[5-(trifluoromethyl)pyrazin-2-yl]amino}-1,2-thiazole-4-carboxamide] | 79 nM |
| Cc1nsc(Nc2cnc(C(F)(F)F)cn2)c1C(=O)Nc1ccc(F)c(OC[C@@H]2CCN(CC(F)(F)F)C2)c1 [Example 339, N-(4-fluoro-3-{[(3R)-1-(2,2,2-trifluoroethyl)pyrrolidin-3-yl]methoxy}phenyl)-3-methyl-5-{[5-(trifluoromethyl)pyrazin-2-yl]amino}-1,2-thiazole-4-carboxamide] | 12 nM |
| Cc1nsc(Nc2cnc(C(F)(F)F)cn2)c1C(=O)Nc1ccc(F)c(OC[C@@H]2CCCN(CC(F)F)C2)c1 [Example 341, N-(3-{[(3R)-1-(2,2-difluoroethyl)piperidin-3-yl]methoxy}-4-fluorophenyl)-3-methyl-5-{[5-(trifluoromethyl)pyrazin-2-yl]amino}-1,2-thiazole-4-carboxamide] | 37 nM |
| Cc1nsc(Nc2cnc(C(F)(F)F)cn2)c1C(=O)Nc1ccc(F)c(OC[C@@H]2CCCN(CC(F)(F)F)C2)c1 [Example 342, N-(4-fluoro-3-{[(3R)-1-(2,2,2-trifluoroethyl)piperidin-3-yl]methoxy}phenyl)-3-methyl-5-{[5-(trifluoromethyl)pyrazin-2-yl]amino}-1,2-thiazole-4-carboxamide] | 110 nM |
| Cc1nsc(Nc2cncc(C(F)(F)F)n2)c1C(=O)Nc1ccc(F)c(OC2CCN(CCC(F)(F)F)CC2)c1 [Example 343, N-(4-fluoro-3-{[1-(3,3,3-trifluoropropyl)piperidin-4-yl]oxy}phenyl)-3-methyl-5-{[6-(trifluoromethyl)pyrazin-2-yl]amino}-1,2-thiazole-4-carboxamide] | 210 nM |
